Reference: publication PMC4198064 (ACS Chemical Neuroscience, 2014)

System: HDAC subtypes 1, 2, 3, and 6
Test: [11C]martinostat PET imaging of whole rat brain, blocked tracer binding
Format: in vivo

Nc1cc(F)ccc1NC(=O)/C=C/c1cnn(C/C=C/c2ccccc2)c1 [RGFP966]
blockade of [11C]martinostat binding in whole brain (subtype-selective benzamides, ip pretreatment): 7–10%

CCCC(CCC)C(=O)O [sodium valproate]
blockade of [11C]martinostat uptake in whole brain (500 mg/kg ip, 30 min prior to tracer): 16%
